Results as given in ChEMBL document CHEMBL3608225, “Harpagoside Inhibits RANKL-Induced Osteoclastogenesis via Syk-Btk-PLCγ2-Ca(2+) Signaling Pathway and Prevents Inflammation-Mediated Bone Loss” (J Nat Prod, 2015).
Activity calls are given as the source filed them. The rule behind the calls is not given here.

Legend:
[1] = target: T1, Tumor necrosis factor ligand superfamily member 11 (Mus musculus) (UniProt O35235); test: Inhibition of RANKL-mediated osteoclast differentiation in mouse BMMC assessed as formation of TRAP-positive osteoclasts after 4 days; type: functional
T1 sequence (whole entry): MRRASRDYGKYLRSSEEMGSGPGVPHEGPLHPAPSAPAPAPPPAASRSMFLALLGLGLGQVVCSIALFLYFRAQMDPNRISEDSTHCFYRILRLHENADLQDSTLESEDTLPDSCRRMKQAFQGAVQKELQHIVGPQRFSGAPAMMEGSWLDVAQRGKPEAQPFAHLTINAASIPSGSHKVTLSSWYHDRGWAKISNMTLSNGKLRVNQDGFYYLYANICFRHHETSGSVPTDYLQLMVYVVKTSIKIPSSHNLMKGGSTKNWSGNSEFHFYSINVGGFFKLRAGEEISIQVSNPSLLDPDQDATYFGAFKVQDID

[2] = Cytotoxicity against mouse BMMC assessed as cell viability after 3 days by XTT assay; details: 72 h
[3] = target: T1, Tumor necrosis factor ligand superfamily member 11 (Mus musculus); test: Inhibition of RANKL-mediated osteoclast differentiation in mouse BMMC assessed as disruption of F-actin ring formation after 3 days using phalloidin and DAPI staining; type: functional
Osteoclast = test: Inhibition of bone resorption in mouse mature osteoclasts after 24 hrs by light microscopic analysis; type: functional, cell-based
[4] = target: T1, Tumor necrosis factor ligand superfamily member 11 (Mus musculus); test: Inhibition of RANKL-mediated osteoclastogenesis in mouse BMMC assessed as reduction of c-Fos protein expression at 100 uM after 12 to 48 hrs by Western blot analysis; type: functional
[5] = target: T1, Tumor necrosis factor ligand superfamily member 11 (Mus musculus); test: Inhibition of RANKL-mediated osteoclastogenesis in mouse BMMC assessed as reduction of NFATc1 protein expression at 100 uM after 12 to 48 hrs by Western blot analysis; type: functional
[6] = target: T1, Tumor necrosis factor ligand superfamily member 11 (Mus musculus); test: Inhibition of RANKL-mediated osteoclastogenesis in mouse BMMC assessed as reduction of c-Fos mRNA expression at 100 uM after 12 to 48 hrs by RT-PCR analysis; type: functional
[7] = target: T1, Tumor necrosis factor ligand superfamily member 11 (Mus musculus); test: Inhibition of RANKL-mediated osteoclastogenesis in mouse BMMC assessed as reduction of NFATc1 mRNA expression at 100 uM after 12 to 48 hrs by RT-PCR analysis; type: functional
[8] = target: T1, Tumor necrosis factor ligand superfamily member 11 (Mus musculus); test: Inhibition of RANKL-mediated osteoclastogenesis in mouse BMMC assessed as reduction of TRAP mRNA expression at 100 uM after 12 to 48 hrs by RT-PCR analysis; type: functional
[9] = target: T1, Tumor necrosis factor ligand superfamily member 11 (Mus musculus); test: Inhibition of RANKL-mediated osteoclastogenesis in mouse BMMC assessed as reduction of OSCAR mRNA expression at 100 uM after 12 to 48 hrs by RT-PCR analysis; type: functional
[10] = target: T1, Tumor necrosis factor ligand superfamily member 11 (Mus musculus); test: Inhibition of RANKL-mediated osteoclastogenesis in mouse BMMC assessed as reduction of beta3-integrin mRNA expression at 100 uM after 12 to 48 hrs by RT-PCR analysis; type: functional
[11] = target: T1, Tumor necrosis factor ligand superfamily member 11 (Mus musculus); test: Inhibition of RANKL-mediated osteoclastogenesis in mouse BMMC assessed as reduction of DC-STAMP mRNA expression at 100 uM after 12 to 48 hrs by RT-PCR analysis; type: functional
[12] = target: T1, Tumor necrosis factor ligand superfamily member 11 (Mus musculus); test: Inhibition of RANKL-mediated osteoclastogenesis in mouse BMMC assessed as reduction of CTR mRNA expression at 100 uM after 12 to 48 hrs by RT-PCR analysis; type: functional
[13] = target: T1, Tumor necrosis factor ligand superfamily member 11 (Mus musculus); test: Inhibition of RANKL-mediated osteoclastogenesis in mouse BMMC assessed as reduction of cathepsin K mRNA expression at 100 uM after 12 to 48 hrs by RT-PCR analysis; type: functional
[14] = target: T1, Tumor necrosis factor ligand superfamily member 11 (Mus musculus); test: Inhibition of RANKL-mediated ERK phosphorylation in mouse BMMC at 100 uM after 1 hr by Western blot analysis
[15] = target: T1, Tumor necrosis factor ligand superfamily member 11 (Mus musculus); test: Inhibition of RANKL-mediated JNK phosphorylation in mouse BMMC at 100 uM after 1 hr by Western blot analysis
[16] = target: Tyrosine-protein kinase SYK (Mus musculus) (UniProt P48025); test: Inhibition of RANKL-mediated Syk phosphorylation in mouse BMMC at 100 uM after 1 hr by Western blot analysis
[17] = target: Tyrosine-protein kinase BTK (Mus musculus) (UniProt P35991); test: Inhibition of RANKL-mediated Btk phosphorylation in mouse BMMC at 100 uM after 1 hr by Western blot analysis
[18] = target: T2, 1-phosphatidylinositol 4,5-bisphosphate phosphodiesterase gamma-2 (Mus musculus) (UniProt Q8CIH5); test: Inhibition of RANKL-mediated PLCgamma2 phosphorylation in mouse BMMC at 100 uM after 1 hr by Western blot analysis
T2 sequence (whole entry): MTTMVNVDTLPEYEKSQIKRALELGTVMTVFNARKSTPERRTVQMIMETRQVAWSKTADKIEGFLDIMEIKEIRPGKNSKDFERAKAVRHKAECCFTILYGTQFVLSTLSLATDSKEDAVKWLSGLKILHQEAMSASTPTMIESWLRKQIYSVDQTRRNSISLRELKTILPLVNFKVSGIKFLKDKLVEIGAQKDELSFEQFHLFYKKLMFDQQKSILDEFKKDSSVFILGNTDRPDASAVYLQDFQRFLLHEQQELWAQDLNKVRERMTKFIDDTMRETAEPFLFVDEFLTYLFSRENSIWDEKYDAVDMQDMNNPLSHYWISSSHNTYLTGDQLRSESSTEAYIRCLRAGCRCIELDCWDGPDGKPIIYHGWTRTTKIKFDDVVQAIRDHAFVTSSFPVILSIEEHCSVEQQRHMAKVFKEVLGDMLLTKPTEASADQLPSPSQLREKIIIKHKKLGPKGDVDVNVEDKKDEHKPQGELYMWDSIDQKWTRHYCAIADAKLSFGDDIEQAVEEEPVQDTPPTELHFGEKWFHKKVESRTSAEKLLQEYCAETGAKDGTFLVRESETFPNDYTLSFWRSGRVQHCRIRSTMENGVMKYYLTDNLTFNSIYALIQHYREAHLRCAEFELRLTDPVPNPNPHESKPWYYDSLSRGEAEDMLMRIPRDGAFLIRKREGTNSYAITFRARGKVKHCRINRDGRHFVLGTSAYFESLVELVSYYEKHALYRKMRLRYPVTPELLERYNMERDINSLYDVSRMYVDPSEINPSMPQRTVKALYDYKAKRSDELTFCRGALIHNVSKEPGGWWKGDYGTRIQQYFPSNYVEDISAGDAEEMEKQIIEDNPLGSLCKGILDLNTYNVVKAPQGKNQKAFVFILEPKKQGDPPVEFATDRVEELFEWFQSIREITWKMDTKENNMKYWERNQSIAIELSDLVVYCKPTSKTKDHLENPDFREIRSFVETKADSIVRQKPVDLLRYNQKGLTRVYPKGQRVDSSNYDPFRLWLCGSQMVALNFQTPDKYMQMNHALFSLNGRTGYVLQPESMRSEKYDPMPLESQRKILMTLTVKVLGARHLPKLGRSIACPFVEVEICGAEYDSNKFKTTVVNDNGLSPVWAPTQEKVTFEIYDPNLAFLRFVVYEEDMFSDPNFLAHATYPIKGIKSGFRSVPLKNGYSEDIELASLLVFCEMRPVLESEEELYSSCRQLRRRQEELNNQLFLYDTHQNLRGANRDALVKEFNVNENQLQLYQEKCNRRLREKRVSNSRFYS

[19] = target: T1, Tumor necrosis factor ligand superfamily member 11 (Mus musculus); test: Inhibition of RANKL-mediated osteoclastogenesis in mouse BMMC assessed as reduction of amplitude and frequency of Ca2+ oscillations at 100 uM after 24 hrs by Fura-2/AM fluorescence assay; type: functional
Mus musculus [20] = test: Inhibition of LPS-induced bone loss in ICR mouse assessed as prevention of loss in trabecular bone in femurs at 10 mg/kg, po after 10 days by micro-CT analysis; type: functional, organism-based; details: Trabecula
Mus musculus [21] = test: Inhibition of LPS-induced bone loss in ICR mouse assessed as restoration of BV/TV in femurs at 10 mg/kg, po after 10 days by morphometric analysis; type: functional, organism-based
Mus musculus [22] = test: Inhibition of LPS-induced bone loss in ICR mouse assessed as restoration of Tb.Sp in femurs at 10 mg/kg, po after 10 days by morphometric analysis; type: functional, organism-based
Mus musculus [23] = test: Inhibition of LPS-induced bone loss in ICR mouse assessed as restoration of Tb.N in femurs at 10 mg/kg, po after 10 days by morphometric analysis; type: functional, organism-based
Mus musculus [24] = test: Inhibition of LPS-induced bone loss in ICR mouse assessed as restoration of Tb.Th in femurs at 10 mg/kg, po after 10 days by morphometric analysis; type: functional, organism-based
Mus musculus [25] = test: Inhibition of LPS-induced bone loss in ICR mouse assessed as reduction of RANKL/OPG ratio in serum level at 10 mg/kg, po after 10 days by ELISA; type: functional, organism-based
Mus musculus [26] = test: Inhibition of LPS-induced bone loss in ICR mouse assessed as restoration of osteoclast formation in femurs at 10 mg/kg, po after 10 days by hematoxylin and eosin staining; type: functional, organism-based
Mus musculus [27] = test: Inhibition of LPS-induced bone loss in ICR mouse assessed as restoration of bone loss in femurs at 10 mg/kg, po after 10 days by hematoxylin and eosin staining; type: functional, organism-based
Mus musculus [28] = test: Inhibition of LPS-induced bone loss in ICR mouse assessed as restoration of number of osteoclasts in femurs at 10 mg/kg, po after 10 days; type: functional, organism-based
Mus musculus [29] = test: Inhibition of LPS-induced bone loss in ICR mouse assessed as reduction of CTX-I in serum at 10 mg/kg, po after 10 days by ELISA; type: functional, organism-based
Mus musculus [30] = test: Inhibition of ovariectomized-induced bone loss in C57BL/6 mouse assessed as reduction of loss of bone mineral density at 10 mg/kg, po administered every other day for 28 days by micro-CT analysis; type: functional, organism-based
Mus musculus [31] = test: Inhibition of ovariectomized-induced bone loss in C57BL/6 mouse assessed as restoration of BV/TV in femurs at 10 mg/kg, po administered every other day for 28 days by morphometric analysis; type: functional, organism-based
Mus musculus [32] = test: Inhibition of ovariectomized-induced bone loss in C57BL/6 mouse assessed as restoration of Tb.Sp in femurs at 10 mg/kg, po administered every other day for 28 days by morphometric analysis; type: functional, organism-based
Mus musculus [33] = test: Inhibition of ovariectomized-induced bone loss in C57BL/6 mouse assessed as restoration of Tb.N in femurs at 10 mg/kg, po administered every other day for 28 days by morphometric analysis; type: functional, organism-based
Mus musculus [34] = test: Inhibition of ovariectomized-induced bone loss in C57BL/6 mouse assessed as restoration of osteoclast formation in femurs at 10 mg/kg, po administered every other day for 28 days by hematoxylin and eosin staining; type: functional, organism-based
Mus musculus [35] = test: Inhibition of ovariectomized-induced bone loss in C57BL/6 mouse assessed as restoration of bone loss in femurs at 10 mg/kg, po administered every other day for 28 days by hematoxylin and eosin staining; type: functional, organism-based
Mus musculus [36] = test: Inhibition of ovariectomized-induced bone loss in C57BL/6 mouse assessed as restoration number of osteoclasts in femurs at 10 mg/kg, po administered every other day for 28 days; type: functional, organism-based
Mus musculus [37] = test: Inhibition of ovariectomized-induced bone loss in C57BL/6 mouse assessed as CTX-I level in serum at 10 mg/kg, po administered every other day for 28 days by ELISA; type: functional, organism-based

Sequence of Tyrosine-protein kinase BTK (Mus musculus) (P35991 whole entry): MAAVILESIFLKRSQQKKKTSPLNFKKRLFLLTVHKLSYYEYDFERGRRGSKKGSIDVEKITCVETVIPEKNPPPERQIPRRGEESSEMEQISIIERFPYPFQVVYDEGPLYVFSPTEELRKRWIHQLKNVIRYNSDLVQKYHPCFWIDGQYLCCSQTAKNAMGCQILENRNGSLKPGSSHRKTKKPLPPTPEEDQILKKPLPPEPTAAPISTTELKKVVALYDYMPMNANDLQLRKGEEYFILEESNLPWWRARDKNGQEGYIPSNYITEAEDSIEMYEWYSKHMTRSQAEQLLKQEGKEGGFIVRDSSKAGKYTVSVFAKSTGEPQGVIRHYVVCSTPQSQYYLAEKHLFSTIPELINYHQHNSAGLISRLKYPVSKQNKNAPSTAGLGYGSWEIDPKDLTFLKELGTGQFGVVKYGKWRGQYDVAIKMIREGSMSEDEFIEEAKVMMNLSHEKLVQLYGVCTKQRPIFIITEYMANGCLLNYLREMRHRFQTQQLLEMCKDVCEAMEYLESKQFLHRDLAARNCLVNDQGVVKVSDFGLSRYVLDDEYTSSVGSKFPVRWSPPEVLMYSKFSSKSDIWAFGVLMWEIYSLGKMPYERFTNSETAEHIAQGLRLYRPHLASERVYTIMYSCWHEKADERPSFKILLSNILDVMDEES
Sequence of Tyrosine-protein kinase SYK (Mus musculus) (P48025 whole entry, looked up): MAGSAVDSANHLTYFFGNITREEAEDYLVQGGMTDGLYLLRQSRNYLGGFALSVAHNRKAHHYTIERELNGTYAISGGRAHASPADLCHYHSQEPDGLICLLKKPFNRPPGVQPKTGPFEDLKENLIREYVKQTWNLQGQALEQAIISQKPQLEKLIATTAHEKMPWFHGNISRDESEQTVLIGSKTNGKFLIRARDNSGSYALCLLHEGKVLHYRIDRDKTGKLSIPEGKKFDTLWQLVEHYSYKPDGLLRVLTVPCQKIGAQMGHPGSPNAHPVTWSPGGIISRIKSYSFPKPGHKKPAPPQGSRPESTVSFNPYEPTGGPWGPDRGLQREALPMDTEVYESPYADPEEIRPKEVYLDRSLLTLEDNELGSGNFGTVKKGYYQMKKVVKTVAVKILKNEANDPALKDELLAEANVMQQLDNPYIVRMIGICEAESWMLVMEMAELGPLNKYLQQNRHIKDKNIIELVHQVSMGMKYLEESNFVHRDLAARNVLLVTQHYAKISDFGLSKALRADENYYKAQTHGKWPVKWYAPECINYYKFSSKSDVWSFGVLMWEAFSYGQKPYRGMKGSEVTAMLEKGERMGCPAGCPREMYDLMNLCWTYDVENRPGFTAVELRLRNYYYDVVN

## C[C@]1(OC(=O)/C=C/c2ccccc2)C[C@@H](O)[C@]2(O)C=CO[C@@H](O[C@@H]3O[C@H](CO)[C@@H](O)[C@H](O)[C@H]3O)[C@@H]21 [HARPAGOSIDE]
[1]
  inhibition: Dose-dependent effect
[2]
  Activity: Non-toxic
[3]
  inhibition: Dose-dependent effect
Osteoclast
  inhibition: Dose-dependent effect
[4]
  inhibition: Active
[5]
  inhibition: Active
[6]
  inhibition: Active
[7]
  inhibition: Active
[8]
  inhibition: Active
[9]
  inhibition: Active
[10]
  inhibition: Active
[11]
  inhibition: Active
[12]
  inhibition: Active
[13]
  inhibition: Active
[14]
  inhibition: Active
[15]
  inhibition: Active
[16]
  inhibition: Active
[17]
  inhibition: Active
[18]
  inhibition: Active
[19]
  inhibition: Active
Mus musculus [20]
  inhibition: Active
Mus musculus [21]
  inhibition: Active
Mus musculus [22]
  inhibition: Active
Mus musculus [23]
  inhibition: Active
Mus musculus [24]
  inhibition: inactive
Mus musculus [25]
  inhibition: Active
Mus musculus [26]
  inhibition: Active
Mus musculus [27]
  inhibition: Active
Mus musculus [28]
  inhibition: Active
Mus musculus [29]
  inhibition: Active
Mus musculus [30]
  inhibition: inactive
Mus musculus [31]
  inhibition: inactive
Mus musculus [32]
  inhibition: inactive
Mus musculus [33]
  inhibition: inactive
Mus musculus [34]
  inhibition: inactive
Mus musculus [35]
  inhibition: inactive
Mus musculus [36]
  inhibition: inactive
Mus musculus [37]
  inhibition: inactive
